In PubChem BioAssay (NCI):
Several values for one entry are separate records, joined by “and”; a condition that tells them apart may be missing. Equal entries are not always repeated.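 Method: 48-hour compound exposure of cells in 96-well plates, five concentrations, linear interpolation of endpoints. GI50 marks 50% less growth. TGI is the concentration that stops growth completely.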

Tests used:
Experiment in all cases: NCI tumour cell line growth inhibition, 48 h
CAKI-1 renal = test system: CAKI-1 renal
UACC-257 melanoma = test system: UACC-257 melanoma
HCT-116 colon = test system: HCT-116 colon
K-562 leukemia = test system: K-562 leukemia
A498 renal = test system: A498 renal
NCI-H460 lung = test system: NCI-H460 lung
NCI-H226 lung = test system: NCI-H226 lung
COLO 205 colon = test system: COLO 205 colon
HT29 colon = test system: HT29 colon
SR leukemia = test system: SR leukemia

SMILES	GI50 (CAKI-1 renal) [µM]	TGI (CAKI-1 renal) [µM]	GI50 (UACC-257 melanoma)	TGI (UACC-257 melanoma)	GI50 (HCT-116 colon)	TGI (HCT-116 colon) [µM]	GI50 (K-562 leukemia)	TGI (K-562 leukemia) [µM]	GI50 (A498 renal)	TGI (A498 renal)	GI50 (NCI-H460 lung)	TGI (NCI-H460 lung) [µM]	GI50 (NCI-H226 lung) [µM]	TGI (NCI-H226 lung) [µM]	GI50 (COLO 205 colon)	TGI (COLO 205 colon)	GI50 (HT29 colon)	TGI (HT29 colon) [µM]	GI50 (SR leukemia)	TGI (SR leukemia) [µM]
COc1ccccc1C(=O)c1cnc(NC2CCN(S(C)(=O)=O)CC2)nc1N	5.84	> 25	11.6 µM	> 25 µM	4.52 µM	> 25	> 25 µM	> 25	6 µM	22 µM	2.85 µM	> 25	4.62	> 23.1	4.37 µM	> 15.4 µM	6.27 µM	> 25	2 µM	> 19.5
Cc1ccc(NC(=O)CCC(=O)C2CC(=O)CC/C2=N\NC(=O)c2cc3ccccc3cc2O)cc1C (stereo not drawn)	–	> 100	–	61.7 µM	–	> 100	–	> 100	–	> 100 µM	–	> 100	–	97.2	–	33.3 µM	–	> 100	–	97.4
Cn1c(=O)n(-c2ccc(C(C)(C)C#N)cc2)c2c3cc(-c4cnc5ccccc5c4)ccc3ncc21	–	0.0401	< 0.0105 µM and 0.00672 µM and < 0.01 µM	0.0493 µM and 0.436 µM and 0.0457 µM	0.0312 µM and 0.00938 µM and 0.0298 µM	> 100	0.0315 µM and 0.00731 µM and 0.0118 µM	> 100	< 0.01 µM and 0.00365 µM	0.007 µM and 0.0306 µM	< 0.01 µM and 0.00581 µM	> 100	< 0.001	–	0.0231 µM and 0.00593 µM	0.702 µM and 0.938 µM	0.0101 µM and 0.00603 µM and < 0.01 µM	–	0.0386 µM and 0.00551 µM and < 0.0137 µM	> 100
O=C1OC(c2ccc(O)cc2)(c2ccc(O)cc2)c2cccc3cccc1c23	18.1	44.6	13.8 µM	27.8 µM	15.6 µM	31.5	15.7 µM	61.3	0.488 µM	15.3 µM	17.9 µM	39.6	17.6	44.7	0.737 µM	18.4 µM	19.4 µM	39.6	10.8 µM	38.3
CCCC/C(=N\N=C(N)N)c1ccc(F)cc1	3.44	15.1	4.4 µM	13.9 µM	3.51 µM	14.6	0.469 µM	11.2	2.59 µM	8.08 µM	3.9 µM	14.7	2.78	13.3	1.78 µM	3.41 µM	2.23 µM	–	0.481 µM	11.9
COc1cc[nH]c1/C=C1\C(=O)Nc2ccc(F)c(C#CC3(O)CCOCC3)c21	0.011	–	0.749 µM	2.76 µM	0.538 µM	> 25	1.36 µM	> 25	0.573 µM	1.67 µM	0.637 µM	2.7	0.498	2.2	0.408 µM	1.13 µM	0.501 µM	2.81	0.447 µM	2.75
COC(=O)C12CC(C3CC31)C1CC12 (stereo not drawn)	–	> 100	–	> 100 µM	–	> 100	–	> 100	–	> 100 µM	–	> 100	–	> 100	–	> 100 µM	–	> 100	–	> 100
COc1cc(C2C3=C(COC3=O)N(CCO)c3cc4c(cc32)CCC4)cc(OC)c1O (stereo not drawn)	0.508	> 26.3	–	> 32.5 µM	0.138 µM	> 12.5	0.161 µM	> 32.5	0.131 µM	5.64 µM	0.114 µM	6.65	3.75	> 32.5	0.229 µM	2.16 µM	0.156 µM	–	0.192 µM	> 32.5
COc1ccc2nc3ccc(OC)cc3c(SCCCN)c2c1	9.79	26	15.6 µM	29.8 µM	3.21 µM	12.6	1.67 µM	3.89	19.4 µM	56.5 µM	8.66 µM	31.6	19.2	65.7	1.42 µM	2.97 µM	1.91 µM	4.07	1.54 µM	3.64
CC1=CC2=C(C)C3(CC3)[C@@](C)(O)C(=O)C2=C1	–	0.744	–	0.578 µM	–	0.357	–	> 1	–	0.505 µM	–	0.431	–	0.492	–	0.584 µM	–	0.803	–	> 1
N#Cc1c2c(c(N=[N+]=[N-])n3c1nc1ccccc13)CCCC2	–	6.39	–	3.12 µM	–	3.51	–	8.21	–	6.1 µM	–	3.82	–	3.35	–	13.1 µM	–	3.77	–	> 100
COC(=O)c1cc(Nc2ccc(O)c3c2C(=O)c2c([N+](=O)[O-])ccc(O)c2C3=O)cc(C(=O)OC)c1	77.1	> 100	3.23 µM	> 100 µM	4.17 µM	> 100	27.2 µM	> 100	20.8 µM	> 100 µM	3.32 µM	18.9	20.1	> 100	2.38 µM	5.56 µM	8.21 µM	> 100	3.19 µM	42.6
COc1cc2ccn3c4cc(OC)c(OC)cc4cc3c2cc1OC	–	> 100	–	> 100 µM	–	> 100	–	> 100	–	> 100 µM	–	> 100	–	> 100	–	> 100 µM	–	> 100	–	> 100
COc1ccc(C[C@H]2C[C@@H](O)[C@@H](C)C/C=C/Cc3cccc(O)c3C(=O)O2)cn1	21.8	54.6	21.5 µM	71.4 µM	19.5 µM	37.6	12.2 µM	28.6	0.712 µM	31.4 µM	22.7 µM	96.3	27.3	> 100	34 µM	> 100 µM	31 µM	> 100	7.44 µM	33.7
CCOP(=O)(OCC)/C(C#N)=C\c1cccc2ccccc12	–	> 100	–	> 100 µM	–	> 100	–	> 100	–	98.7 µM	–	> 100	–	> 73.8	–	> 100 µM	–	> 100	–	> 75.1
